# Assay results from US7902327B2, “Dendrimeric peptides, pharmaceutical compositions and methods of using the same” (New York University School of Medicine, priority 2007, dated 2011).
# Like-named read-outs stand apart in the source and are kept apart here. Where a SMILES comes first, the peptide text is derived from it. Where no end group is shown, it is not given here. Side-chain parts run from the residue outwards. [ ]: non-standard residue; d: D form. The star is where a group is joined. Lys(α,ε-(ArgTrp)2) = N=C(N)NCCC[C@H](N)C(=O)N[C@@H](Cc1c[nH]c2ccccc12)C(=O)NCCCC[C@H](NC(=O)[C@H](Cc1c[nH]c2ccccc12)NC(=O)[C@@H](N)CCCNC(=N)N)C(=O)*; NHBn = c1ccc(CN*)cc1; OBn = c1ccc(CO*)cc1; X1 = CCCCCCCCCN*; βAla = NCCC(=O)O
# What was measured:
# [1] = test system: ampicillin- and streptomycin-resistant E. coli (D31); details: for MIC50 E. coli D31: salt not stated
# [2] = test system: multi-drug resistant strain S. aureus
# [3] = test system: Acinetobacter. baumannii (ATCC BAA-747)
# [4] = test system: B. anthracis (32F2 Sterne)
# fresh sheep erythrocytes = assay: hemolytic assay; format: cell-based; details: sheep erythrocytes, 37° C., 30 minutes
# Protocol: Hemolytic activity of model peptides was assessed on fresh sheep erythrocytes (Fitzgerald Inc., Concord, Mass.). […] The resulting supernatant was diluted by a factor of 40 in distilled water. The absorbances of the supernatant at λ=540 nm (OD540) were measured in the UV Spectrophotometer. […] Hemolytic index (HI) was defined as HI═HD50/IC50.
# [5] = test system: three other gram-positive bacteria
# E. coli RP437 biofilms = assay: biofilm assay on stainless steel coupons with LIVE/DEAD staining; format: cell-based; details: for Biofilm coefficients: Dead cells / Biofilm coefficients: Live cells / Biofilm coefficients: Total biofilms: 24 hours
# Protocol: The stainless steel (S.S.) coupons were polished using a fine 3M SandBlaster sandpaper, then autoclaved for sterilization. […] For all the treatments, duplicate coupons were tested. To analyze the E. coli biofilms using fluorescence microscopy, the biofilms were stained with […] bacterial viability kit (Cat# L7012, Invitrogen Corporation, California). Each S.S. coupon was washed gently by dipping vertically in 0.85% NaCl buffer three times (change to fresh buffer after each dipping). Then, they were soaked in 1 mL of 0.85% NaCl buffer containing 3 μl of staining component A and B (1:4) in the dark for 15 mins. Images were taken by AXIO Imager.M1 (Carl Zeiss, German). Five images were taken for each sample. Data were obtained and are presented in Table 3, below, as well as in FIG. 5.
molecule,measurement,setting,value
"N=C(N)NCCC[C@H](N)C(=O)N[C@@H](Cc1c[nH]c2ccccc12)C(=O)NCCCC[C@H](NC(=O)[C@H](Cc1c[nH]c2ccccc12)NC(=O)[C@@H](N)CCCNC(=N)N)C(=O)NCCCC[C@H](NC(=O)[C@H](CCCCNC(=O)[C@H](Cc1c[nH]c2ccccc12)NC(=O)[C@@H](N)CCCNC(=N)N)NC(=O)[C@H](Cc1c[nH]c2ccccc12)NC(=O)[C@@H](N)CCCNC(=N)N)C(=O)NCCC(=O)NCc1ccccc1 [(RW)4D-Benzyl amine] (H-RWK([Trp-Arg])K(Lys(α,ε-(ArgTrp)2))[βAla]-NHBn)",MIC50 E. coli D31,[1],21.3 µg/mL
same,MIC50 B. subtilis,B. Subtilis (ATCC 6633); ATCC 6633,5.0 µg/mL
same,MIC50 S. aureus,[2]; salt not stated,37.8 µg/mL
same,MIC50 A. baumannii,[3],121 µg/mL
same,MIC50 E. coli,E. coli,12.8 µg/mL
same,MIC50 B. anthracis,[4],34.8 µg/mL
"N=C(N)NCCC[C@H](N)C(=O)N[C@@H](Cc1c[nH]c2ccccc12)C(=O)NCCCC[C@H](NC(=O)[C@H](Cc1c[nH]c2ccccc12)NC(=O)[C@@H](N)CCCNC(=N)N)C(=O)NCCCC[C@H](NC(=O)[C@H](CCCCNC(=O)[C@H](Cc1c[nH]c2ccccc12)NC(=O)[C@@H](N)CCCNC(=N)N)NC(=O)[C@H](Cc1c[nH]c2ccccc12)NC(=O)[C@@H](N)CCCNC(=N)N)C(=O)NCCC(=O)OCc1ccccc1 [(RW)4D-Benzyl ester] (H-RWK([Trp-Arg])K(Lys(α,ε-(ArgTrp)2))[βAla]-OBn)",MIC50 E. coli D31,[1],29.7 µg/mL
same,MIC50 B. subtilis,B. Subtilis (ATCC 6633); ATCC 6633,6.8 µg/mL
same,MIC50 S. aureus,[2]; salt not stated,19.6 µg/mL
same,MIC50 A. baumannii,[3],78.7 µg/mL
same,MIC50 E. coli,E. coli,14.3 µg/mL
same,MIC50 B. anthracis,[4],34.2 µg/mL
"CCCCCCCCCNC(=O)CCNC(=O)[C@H](CCCCNC(=O)[C@H](CCCCNC(=O)[C@H](Cc1c[nH]c2ccccc12)NC(=O)[C@@H](N)CCCNC(=N)N)NC(=O)[C@H](Cc1c[nH]c2ccccc12)NC(=O)[C@@H](N)CCCNC(=N)N)NC(=O)[C@H](CCCCNC(=O)[C@H](Cc1c[nH]c2ccccc12)NC(=O)[C@@H](N)CCCNC(=N)N)NC(=O)[C@H](Cc1c[nH]c2ccccc12)NC(=O)[C@@H](N)CCCNC(=N)N [(RW)4D-Nonylamine] (H-RWK([Trp-Arg])K(Lys(α,ε-(ArgTrp)2))[βAla]-X1)",MIC50 E. coli D31,[1],26.7 µg/mL
same,MIC50 B. subtilis,B. Subtilis (ATCC 6633); ATCC 6633,6.5 µg/mL
same,MIC50 S. aureus,[2]; salt not stated,21.6 µg/mL
same,MIC50 A. baumannii,[3],75.2 µg/mL
same,MIC50 E. coli,E. coli,15.8 µg/mL
same,MIC50 B. anthracis,[4],31.8 µg/mL
NC(=O)CCNC(=O)[C@H](CCCCNC(=O)[C@H](CCCCNC(=O)[C@H](Cc1c[nH]c2ccccc12)NC(=O)[C@@H](N)Cc1c[nH]cn1)NC(=O)[C@H](Cc1c[nH]c2ccccc12)NC(=O)[C@@H](N)Cc1c[nH]cn1)NC(=O)[C@H](CCCCNC(=O)[C@H](Cc1c[nH]c2ccccc12)NC(=O)[C@@H](N)Cc1c[nH]cn1)NC(=O)[C@H](Cc1c[nH]c2ccccc12)NC(=O)[C@@H](N)Cc1c[nH]cn1 [Den(HW)4D],MIC50 A. baumannii,[3],82.7 µg/mL
same,MIC50 E. coli,E. coli,30.6 µg/mL
NCCCC[C@H](N)C(=O)N[C@@H](Cc1ccccc1)C(=O)NCCCC[C@H](NC(=O)[C@H](Cc1ccccc1)NC(=O)[C@@H](N)CCCCN)C(=O)NCCCC[C@H](NC(=O)[C@H](CCCCNC(=O)[C@H](Cc1ccccc1)NC(=O)[C@@H](N)CCCCN)NC(=O)[C@H](Cc1ccccc1)NC(=O)[C@@H](N)CCCCN)C(=O)NCCC(N)=O [Den(KF)4D],MIC50 S. aureus,[2]; salt not stated,145 µg/mL
same,MIC50 A. baumannii,[3],175 µg/mL
same,MIC50 E. coli,E. coli,77 µg/mL
NCCCC[C@H](N)C(=O)N[C@@H](Cc1c[nH]c2ccccc12)C(=O)NCCCC[C@H](NC(=O)[C@H](Cc1c[nH]c2ccccc12)NC(=O)[C@@H](N)CCCCN)C(=O)NCCCC[C@H](NC(=O)[C@H](CCCCNC(=O)[C@H](Cc1c[nH]c2ccccc12)NC(=O)[C@@H](N)CCCCN)NC(=O)[C@H](Cc1c[nH]c2ccccc12)NC(=O)[C@@H](N)CCCCN)C(=O)NCCC(N)=O [Den(KW)4D],MIC50 S. aureus,[2]; salt not stated,23.3 µg/mL
same,MIC50 A. baumannii,[3],52 µg/mL
same,MIC50 E. coli,E. coli,30.6 µg/mL
NCCCC[C@H](N)C(=O)N[C@@H](Cc1ccc(O)cc1)C(=O)NCCCC[C@H](NC(=O)[C@H](Cc1ccc(O)cc1)NC(=O)[C@@H](N)CCCCN)C(=O)NCCCC[C@H](NC(=O)[C@H](CCCCNC(=O)[C@H](Cc1ccc(O)cc1)NC(=O)[C@@H](N)CCCCN)NC(=O)[C@H](Cc1ccc(O)cc1)NC(=O)[C@@H](N)CCCCN)C(=O)NCCC(N)=O [Den(KY)4D],MIC50 S. aureus,[2]; salt not stated,240 µg/mL
same,MIC50 A. baumannii,[3],360 µg/mL
same,MIC50 E. coli,E. coli,84.4 µg/mL
N=C(N)NCCC[C@H](N)C(=O)N[C@@H](Cc1ccc2ccccc2c1)C(=O)NCCCC[C@H](NC(=O)[C@H](Cc1ccc2ccccc2c1)NC(=O)[C@@H](N)CCCNC(=N)N)C(=O)NCCCC[C@H](NC(=O)[C@H](CCCCNC(=O)[C@H](Cc1ccc2ccccc2c1)NC(=O)[C@@H](N)CCCNC(=N)N)NC(=O)[C@H](Cc1ccc2ccccc2c1)NC(=O)[C@@H](N)CCCNC(=N)N)C(=O)NCCC(N)=O [Den(R-2Nal)4D],MIC50 S. aureus,[2]; salt not stated,36.0 µg/mL
same,MIC50 A. baumannii,[3],51.3 µg/mL
same,MIC50 E. coli,E. coli,21.5 µg/mL
N=C(N)NCCC[C@H](N)C(=O)N[C@@H](Cc1ccccc1)C(=O)NCCCC[C@H](NC(=O)[C@H](Cc1ccccc1)NC(=O)[C@@H](N)CCCNC(=N)N)C(=O)NCCCC[C@H](NC(=O)[C@H](CCCCNC(=O)[C@H](Cc1ccccc1)NC(=O)[C@@H](N)CCCNC(=N)N)NC(=O)[C@H](Cc1ccccc1)NC(=O)[C@@H](N)CCCNC(=N)N)C(=O)NCCC(N)=O [Den(RF)4D],MIC50 S. aureus,[2]; salt not stated,180 µg/mL
same,MIC50 A. baumannii,[3],160 µg/mL
same,MIC50 E. coli,E. coli,30 µg/mL
N=C(N)NCCC[C@H](N)C(=O)NC(Cc1c[nH]c2ccc(F)cc12)C(=O)NCCCC[C@H](NC(=O)C(Cc1c[nH]c2ccc(F)cc12)NC(=O)[C@@H](N)CCCNC(=N)N)C(=O)NCCCC[C@H](NC(=O)[C@H](CCCCNC(=O)C(Cc1c[nH]c2ccc(F)cc12)NC(=O)[C@@H](N)CCCNC(=N)N)NC(=O)C(Cc1c[nH]c2ccc(F)cc12)NC(=O)[C@@H](N)CCCNC(=N)N)C(=O)NCCC(N)=O (some centres unmarked) [Den(RW*)4D],MIC50 S. aureus,[2]; salt not stated,13 µg/mL
same,MIC50 A. baumannii,[3],35 µg/mL
same,MIC50 E. coli,E. coli,9.3 µg/mL
N=C(N)NCCC[C@H](N)C(=O)N[C@@H](Cc1ccc(O)cc1)C(=O)NCCCC[C@H](NC(=O)[C@H](Cc1ccc(O)cc1)NC(=O)[C@@H](N)CCCNC(=N)N)C(=O)NCCCC[C@H](NC(=O)[C@H](CCCCNC(=O)[C@H](Cc1ccc(O)cc1)NC(=O)[C@@H](N)CCCNC(=N)N)NC(=O)[C@H](Cc1ccc(O)cc1)NC(=O)[C@@H](N)CCCNC(=N)N)C(=O)NCCC(N)=O [Den(RY)4D],MIC50 S. aureus,[2]; salt not stated,45.7 µg/mL
same,MIC50 A. baumannii,[3],193 µg/mL
same,MIC50 E. coli,E. coli,12.6 µg/mL
"CC[C@H](C)[C@H](N)C(=O)N[C@@H](CC(C)C)C(=O)N1CCC[C@H]1C(=O)N[C@@H](Cc1c[nH]c2ccccc12)C(=O)N[C@@H](CCCCN)C(=O)N[C@@H](Cc1c[nH]c2ccccc12)C(=O)N1CCC[C@H]1C(=O)N[C@@H](Cc1c[nH]c2ccccc12)C(=O)N[C@@H](Cc1c[nH]c2ccccc12)C(=O)N1CCC[C@H]1C(=O)N[C@@H](Cc1c[nH]c2ccccc12)C(=O)N[C@@H](CCCNC(=N)N)C(=O)N[C@@H](CCCNC(=N)N)C(N)=O [Indolicidin, reference compound]",HD50 (peptide concentration corresponding to 50% hemolysis),fresh sheep erythrocytes,293 µg/mL
same,increase in MIC50 value from no salt to high-salt condition,"[1]; E. coli and S. aureus, 0 to 150 mM NaCl",> 100%
same,MIC50 B. subtilis,B. Subtilis (ATCC 6633); ATCC 6633,1.0 µg/mL
same,MIC50 E. faecalis,E. faecalis (29212); 29212,1.6 µg/mL
same,mean MIC50 against all test organisms,[5],3.6 µg/mL
same,MIC50 B. anthracis,[4]; 32F2 Sterne,8.2 µg/mL
Gentamicin [reference compound],HD50 (peptide concentration corresponding to 50% hemolysis),fresh sheep erythrocytes,>2000 µg/mL
same,MIC50 E. coli,[1]; 0 mM NaCl,1.2 µg/mL
same,MIC50 E. coli,[1]; 75 mM NaCl,1.2 µg/mL
same,MIC50 E. coli,[1]; 150 mM NaCl,1.2 µg/mL
same,MIC50 B. subtilis,B. Subtilis (ATCC 6633),0.32 µg/mL
same,MIC50 S. aureus,[2]; 0 mM NaCl,51 µg/mL
same,MIC50 S. aureus,[2]; 75 mM NaCl,51 µg/mL
same,MIC50 S. aureus,[2]; 150 mM NaCl,51 µg/mL
same,MIC50 E. faecalis,E. faecalis (29212),0.36 µg/mL
same,MIC50 B. anthracis,[4],3.1 µg/mL
"RWRWRW-NH2 (C-terminus assumed) [Hexamer, reference compound]",Total biofilm formation compared with blank control (ANOVA),E. coli RP437 biofilms; 25 μg/mL,not significant
same,Biofilm coefficients: Dead cells,E. coli RP437 biofilms; 25 μg/mL,12.29% ± 2.00%
same,Biofilm coefficients: Live cells,E. coli RP437 biofilms; 25 μg/mL,5.18% ± 1.57%
same,Biofilm coefficients: Total biofilms,E. coli RP437 biofilms; 25 μg/mL,17.49% ± 2.20%
same,Total biofilm formation compared with blank control (ANOVA),E. coli RP437 biofilms; 50 μg/mL,significantly reduced
same,Biofilm coefficients: Dead cells,E. coli RP437 biofilms; 50 μg/mL,12.22% ± 2.02%
same,Biofilm coefficients: Live cells,E. coli RP437 biofilms; 50 μg/mL,4.25% ± 1.55%
same,Biofilm coefficients: Total biofilms,E. coli RP437 biofilms; 50 μg/mL,16.68% ± 2.11%
